Test results published in patent US20030225007A1, “Sulfonamide derivatives of 3-substituted imidazol[1,2-d]-1,2,4-thiadiazoles and 3-substituted-[1,2,4] thiadiazolo[4,5-a] benzimidazole as inhibitors of fibrin cross-linking and transglutaminases” (Apotex Inc., priority 2002, published 2003).
Several values for one entry are separate records, joined by “and”; a condition that tells them apart may be missing. Identical values can stand only once. Like-named read-outs stand apart in the source and are kept apart here.

Assays:
[1] = target: T1, Factor XIIIa (activated FXIII) (Homo sapiens, UniProt P00488); experiment: Inactivation of purified Factor XIIIa (monodansylcadaverine incorporation into dimethylcasein, fluorescence); assay type: biochemical; details: for kinact/KI: read-out: Second order rate constant for inactivation
T1 construct: purchased Enzyme Research Laboratories, Ltd
T1 sequence (P00488 39-732 limits assumed): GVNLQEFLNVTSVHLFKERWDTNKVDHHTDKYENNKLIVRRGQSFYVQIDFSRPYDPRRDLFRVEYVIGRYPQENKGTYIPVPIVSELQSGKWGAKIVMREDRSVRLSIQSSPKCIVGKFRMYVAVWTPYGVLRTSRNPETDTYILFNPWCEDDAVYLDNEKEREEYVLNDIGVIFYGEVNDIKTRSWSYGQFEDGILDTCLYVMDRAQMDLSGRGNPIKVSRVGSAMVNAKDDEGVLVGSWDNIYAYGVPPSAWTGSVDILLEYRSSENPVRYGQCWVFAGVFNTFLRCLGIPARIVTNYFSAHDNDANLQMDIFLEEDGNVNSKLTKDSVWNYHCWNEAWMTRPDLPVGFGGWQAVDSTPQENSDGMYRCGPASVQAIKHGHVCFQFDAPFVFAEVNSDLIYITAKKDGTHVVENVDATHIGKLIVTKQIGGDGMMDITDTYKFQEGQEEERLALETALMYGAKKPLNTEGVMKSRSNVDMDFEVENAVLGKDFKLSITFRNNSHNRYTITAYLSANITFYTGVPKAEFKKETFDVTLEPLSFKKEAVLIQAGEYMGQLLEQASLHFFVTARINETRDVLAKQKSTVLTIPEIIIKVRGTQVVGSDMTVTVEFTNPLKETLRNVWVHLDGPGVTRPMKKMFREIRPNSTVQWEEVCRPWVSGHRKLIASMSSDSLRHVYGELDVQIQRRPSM
Experimental: FXIII (0.5 mg/mL, Enzyme Research Laboratories, Ltd.) in 50 mM Tris-HCl pH 7.5 containing 100 mM NaCl, 40 mM CaCl2, 1 mM EDTA and 0.1% poly(ethylene glycol) (app. MW=8000) was activated by incubation with 10 NIH units/mL of human thrombin (Calbiochem) at 37° C. for 20 min. Thrombin was quenched with 20 NIH units/mL of hirudin from Leech (Sigma).
Inhibitor solution in DMSO (14 μL) was added to 120 μL of 250 mM Tris-Cl pH 7.5 containing 40 mM CaCl2 and 1 mM EDTA and the solution was incubated at 37° C. for two minutes. Activated FXIII (5 μL, 0.5 mg/mL) was added and the mixture was incubated at 37° C. for 5 min.
An assay mixture composed of 50 mM Tris-Cl pH 8.0, 10 mM CaCl2, 1 mM EDTA, 0.1% poly(ethylene glycol) (app. MW=1000) and 20 μM monodansylcadaverine was prepared in a spectrofluorometric cell in a final volume of 2880 μL. Dimethylcasein (8 μL, 1% in 50 mM sodium phosphate pH 7.5) was added and the solution was incubated at 37° C. for a few minutes. To assay the residual enzyme activity, 120 μL of the solution containing the enzyme and the inhibitor was transferred to the assay mixture. The covalent incorporation of monodansylcadaverine into casein was monitored by an increase in fluorescence at λexc=360 nm and λem=500 nm as previously described (Curtis, C. G.; Lorand, L. Methods Enzymol. 1976, 45, 177-191). To determine uninhibited enzyme activity, DMSO was used in place of inhibitor solution in the above assay. IC50 were determined by plotting the percent of remaining enzyme activity against logarithm of inhibitor concentration. IC50 is defined here as an inhibitor concentration resulting in 50% enzyme inactivation after 5-min incubation of the enzyme with the inhibitor in the absence of the substrate. Second order rate constants for inactivation were determined using method described by Kitz and Wilson (Kitz, R.; Wilson, I. J. Biol. Chem. 1962, 237, 3245).

Guinea pig liver TGase = target: T2, Guinea pig liver TGase (Cavia cutleri, UniProt P08587); experiment: Enzyme selectivity: inactivation of tissue type transglutaminase; assay type: biochemical; details: 5-min incubation at 37° C. in the absence of substrate
T2 construct: Guinea pig liver TGase; from tissue; host or cells: guinea pig liver
T2 sequence (P08587 2-690): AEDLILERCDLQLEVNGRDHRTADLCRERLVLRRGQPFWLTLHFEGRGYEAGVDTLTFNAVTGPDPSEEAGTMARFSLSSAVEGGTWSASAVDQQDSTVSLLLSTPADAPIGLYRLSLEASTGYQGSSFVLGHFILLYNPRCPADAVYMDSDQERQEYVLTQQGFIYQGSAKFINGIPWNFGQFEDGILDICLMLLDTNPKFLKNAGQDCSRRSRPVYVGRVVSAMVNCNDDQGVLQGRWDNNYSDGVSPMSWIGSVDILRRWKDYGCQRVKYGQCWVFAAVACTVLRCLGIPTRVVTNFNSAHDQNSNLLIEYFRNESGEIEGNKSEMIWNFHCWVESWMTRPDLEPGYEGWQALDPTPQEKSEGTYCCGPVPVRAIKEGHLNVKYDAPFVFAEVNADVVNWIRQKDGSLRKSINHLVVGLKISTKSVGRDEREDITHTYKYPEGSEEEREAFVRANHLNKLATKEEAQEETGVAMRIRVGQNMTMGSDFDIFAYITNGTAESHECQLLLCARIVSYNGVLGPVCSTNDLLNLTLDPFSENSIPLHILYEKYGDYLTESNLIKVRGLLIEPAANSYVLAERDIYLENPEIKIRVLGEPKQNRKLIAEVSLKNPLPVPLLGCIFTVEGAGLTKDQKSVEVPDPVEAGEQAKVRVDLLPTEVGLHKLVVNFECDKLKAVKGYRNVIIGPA
Experimental: Enzyme selectivity . Inactivation of tissue type transglutaminase: Inhibitor solution in DMSO (5 μL) was added to 250 mM Tris-Cl pH 7.5 containing 40 mM CaCl2 and 1 mM EDTA in a final volume of 42 μL. Guinea pig liver TGase (3 μL, 2.5 mg/mL in 5 mM Tris-HCl pH 7.5, 2 mM EDTA) was added and the mixture was incubated for 5 min. at 37° C.
An assay mixture composed of 50 mM Tris-Cl, pH 8.0, 10 mM CaCl2, 1 mM EDTA, 0.1% poly(ethylene glycol) (app. MW=1000) and 20 μM monodansylcadaverine was prepared in a spectrofluorimetric cell in a final volume of 2952 μL. Dimethylcasein (8 μL, 1% in 50 mM sodium phosphate pH 7.5) was added and the mixture was incubated at 37° C. for a few minutes. To assay the residual enzyme activity, 40 μL of the solution containing the enzyme and the inhibitor was transferred to the assay mixture. The covalent incorporation of monodansylcadaverine into casein was monitored by an increase in fluorescence at λexc=360 nm and λem=500 nm, as previously described ((Curtis, C. G.; Lorand, L. Methods Enzymol. 1976, 45, 177-191). To determine uninhibited enzyme activity, DMSO was used in place of inhibitor solution in the above assay. IC50 values were determined by plotting the percent of remaining enzyme activity against logarithm of inhibitor concentration. IC50 is defined here as inhibitor concentration resulting in 50% enzyme inactivation after 5-min incubation of the enzyme with the inhibitor in the absence of the substrate. Second order rate constants for inactivation were determined using method described by Kitz and Wilson (Kitz, R.; Wilson, I. J.Biol.Chem. 1962,237, 3245).

[2] = values without asterisk, purified FXIIIa, 5-min incubation, read-out: FXIIIa IC50 determined by method in Example 16
[3] = purified Factor XIIIa, method of Kitz and Wilson
[4] = TGAse IC50, Guinea pig liver TGase
[5] = purified activated FXIII, 50% enzyme inactivation after 5-min incubation with inhibitor at 37° C. in the absence of substrate, read-out: FXIIIa (IC50 in μM)

| Compound | IC50 [1, 5] | further results |
| --- | --- | --- |
| O=C(N1CCc2ccc(S(=O)(=O)NCCCCCCNc3nsc4nccn34)cc2C1)C(F)(F)F | – | IC50 [1, 2]: 11 µM; IC50 (Guinea pig liver TGase; read-out: TGAse IC50, Guinea pig liver TGase): 17 µM |
| O=S(=O)(NCCCCCCNc1nsc2nccn12)c1ccccc1C(F)(F)F [2-CF3-Ph / H, N-[6-(imidazo[1,2-d][1,2,4]thiadiazol-3-ylamino)hexyl]-2-trifluoromethylbenzenesulfonamide] | – | kinact/KI [1, 3]: 12000 M⁻¹ s⁻¹; IC50 ([1]; values marked *, read-out: FXIIIa IC50, *values calculated from second order rate constant for inactivation): 0.26 µM and 0.18 µM; IC50 (Guinea pig liver TGase; [4]): 7.5 µM and 3.8 µM |
| CN(CCCCCCNS(=O)(=O)c1ccccc1[N+](=O)[O-])c1nsc2nccn12 [2-NO2-Ph / CH3, N-{6-[imidazo[1,2-d][1,2,4]thiadiazol-3-yl(methyl)amino]hexyl}-2-nitrobenzenesulfonamide] | – | IC50 (Guinea pig liver TGase; [4]): 6.2 µM |
| O=S(=O)(NCCCCCCNc1nsc2nccn12)c1ccc(-c2ccccc2)cc1 [4-Ph-Ph, N-[6-(imidazo[1,2-d][1,2,4]thiadiazol-3-ylamino)hexyl]-4-phenylbenzenesulfonamide] | 1.3 µM | – |
| Cc1ccc(S(=O)(=O)N[C@@H](CCCCNc2nsc3nccn23)C(=O)N2CCN(Cc3ccccc3)CC2)cc1 [4-benzyl-{N^ε-imidazo[1,2-d][1,2,4]thiadiazol-3-yl-N^α-[(4-methylphenyl)sulfonyl]lysyl}piperazine] | 6.5 µM | – |
| O=C(O)CCCCCN(CCCCCCNc1nsc2nccn12)S(=O)(=O)c1ccc(F)cc1F [5 / OH / 2-F-4-F-Ph, 6-{[(2,4-difluorophenyl)sulfonyl][6-(imidazo[1,2-d][1,2,4]thiadiazol-3-ylamino)hexyl]amino}hexanoic acid] | 6.8 µM | – |
| CN(CCCCCCN(C)S(=O)(=O)c1ccccc1[N+](=O)[O-])c1nsc2nccn12 [CH3 / CH3 / 2-NO2-Ph, N-{6-[imidazo[1,2-d][1,2,4]thiadiazol-3-yl(methyl)amino]hexyl}-N-methyl-2-nitrobenzenesulfonamide] | 0.6 µM | – |
| CN(CCCCCCNc1nsc2nccn12)S(=O)(=O)c1cccc2ccccc12 [CH3 / H / 1-naphthyl, N-[6-(imidazo[1,2-d][1,2,4]thiadiazol-3-ylamino)hexyl]-N-methylnaphthalene-1-sulfonamide] | 2.4 µM | – |
| CN(CCCCCCNc1nsc2nccn12)S(=O)(=O)c1ccccc1[N+](=O)[O-] [CH3 / H / 2-NO2-Ph, N-[6-(Imidazo[1,2-d][1,2,4]thiadiazol-3-ylamino)hexyl]-N-methyl-2-nitro benzene sulfonamide] | 1.3 µM | – |
| COC(=O)CN(CCCCCCNS(=O)(=O)c1ccccc1[N+](=O)[O-])c1nsc2nccn12 [H / CH2COOMe / 2-NO2-Ph, methyl N-imidazo[1,2-d][1,2,4]thiadiazol-3-yl-N-(6-{[(2-nitrophenyl)sulfonyl]amino}hexyl)glycinate] | 0.88 µM | – |
| Cc1ccc(S(=O)(=O)N[C@@H](CCCCNc2nsc3nccn23)C(=O)NCc2ccc(F)cc2)cc1 [N-(4-fluorobenzyl)-N^ε-imidazo[1,2-d][1,2,4]thiadiazol-3-yl-N^α-[(4-methylphenyl)sulfonyl]lysinamide] | 6.7 µM | – |
| O=[N+]([O-])c1ccc(NCCCCCCNc2nsc3nccn23)c([N+](=O)[O-])c1 [N^1-(2,4-dinitrophenyl)-N^6-imidazo[1,2-d][1,2,4]thiadiazol-3-ylhexane-1,6-diamine] | – | kinact/KI [1, 3]: 8900 M⁻¹ s⁻¹ |
| O=S(=O)(NCCCCCCNc1nsc2nccn12)c1cccc2cccnc12 [Quinoline-8-, N-[6-(imidazo[1,2-d][1,2,4]thiadiazol-3-ylamino)hexyl]quinoline-8-sulfonamide] | 2.6 µM | – |
| Cc1ccc(S(=O)(=O)NC(CCCCNc2nsc3nccn23)C(N)=O)cc1 (centres unmarked) [—CH(CONH2)—NH— / 4-Me-Ph] | 9.1 µM | – |
| Cc1ccc(S(=O)(=O)N[C@@H](CCCCNc2nsc3nccn23)C(=O)O)cc1 [—CH(COOH)—NH— / 4-Me-Ph, N^ε-imidazo[1,2-d][1,2,4]thiadiazol-3-yl-N^α-[(4-methylphenyl)sulfonyl]lysine] | 6.7 µM | – |
| COC(=O)[C@H](CCCCNc1nsc2nccn12)NS(=O)(=O)c1ccc(C)cc1 [—CH(COOMe)—NH— / 4-Me-Ph, methyl N^ε-imidazo[1,2-d][1,2,4]thiadiazol-3-yl-N^α-[(4-methylphenyl)sulfonyl]lysinate] | 7 µM | – |
| N-imidazo[1,2-d][1,2,4]thiadiazol-3-yl-N-(6-{[(2-nitrophenyl)sulfonyl]amino}hexyl)glycinamide [H / CH2CONH2 / 2-NO2-Ph] | 0.42 µM | Second order rate constant for inactivation [1, 3]: 6700 M⁻¹ s⁻¹; IC50 [1, 2]: 0.42 µM; IC50 (Guinea pig liver TGase; Guinea pig liver TGase, read-out: TGAse IC50): 32 µM |
